The nature of this assay: CD69 Whole Blood Assay (CD69 Hu Blood FACS). It counts as cell-based, human. The note with it: Lymphocyte; human whole blood, anti-IgM activated B lymphocytes, FACS; IC70; Table 2 (unit inferred); read-out: CD69 Hu Blood FACS (IC70). The essentials: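 Compounds tested for blocking B-cell CD69 induction by flow cytometry in human whole blood, with activation via anti-human IgM goat F(ab′)2 crosslinking of surface IgM.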

This is an account of results in patent US10045983B2, “Heteroaryl pyridone and aza-pyrodine compounds” (Genentech, Inc., priority 2011, dated 2018).

The term IC70 denotes the concentration needed for an effect of 70%. Consider `CC(=O)N1CCc2nc(Nc3cc(-c4ccnc(N5CCn6c7c(c(F)c6C5=O)CCCC7)c4CO)cn(C)c3=O)sc2C1` [Example 234, 2-[4-[5-[(5-acetyl-6,7-dihydro-4H-thiazolo[5,4-c]pyridin-2-yl)amino]-1-methyl-6-oxo-3-pyridyl]-3-(hydroxymethyl)-2-pyridyl]-10-fluoro-3,4,6,7,8,9-hexahydropyrazino[1,2-a]indol-1-one], for which the IC70 amounted to 183 nM. Then `C[C@H]1CN(C2COC2)CCN1c1cnc(Nc2cc(-c3ccnc(N4CCn5c(cc6c5CC(C)(C)C6)C4=O)c3CO)cn(C)c2=O)cn1` [Example 235, 3-[3-(hydroxymethyl)-4-[1-methyl-5-[[5-[(2S)-2-methyl-4-(oxetan-3-yl)piperazin-1-yl]pyrazin-2-yl]amino]-6-oxo-3-pyridyl]-2-pyridyl]-7,7-dimethyl-1,2,6,8-tetrahydrocyclopenta[3,4]pyrrolo[3,5-b]pyrazin-4-one], with 112 nM; and `CN1CCC(c2ccc(Nc3cc(-c4ccnc(N5CCn6c(cc7c6CC(C)(C)C7)C5=O)c4CO)cn(C)c3=O)nc2)CC1` [Example 236, 3-[3-(hydroxymethyl)-4-[1-methyl-5-[[5-(1-methyl-4-piperidyl)-2-pyridyl]amino]-6-oxo-3-pyridyl]-2-pyridyl]-7,7-dimethyl-1,2,6,8-tetrahydrocyclopenta[3,4]pyrrolo[3,5-b]pyrazin-4-one], with 33.6 nM; and `C[C@H]1CN(C2COC2)CCN1c1ccc(Nc2cc(-c3ccnc(N4CCc5c(c(F)c6n5CCCC6)C4=O)c3CO)cn(C)c2=O)nc1` [Example 237, 10-fluoro-2-[3-(hydroxymethyl)-4-[1-methyl-5-[[5-[(2S)-2-methyl-4-(oxetan-3-yl)piperazin-1-yl]-2-pyridyl]amino]-6-oxo-3-pyridyl]-2-pyridyl]-3,4,6,7,8,9-hexahydropyrido[3,4-b]indolizin-1-one], with 46.1 nM. Then `CN1CC(c2ccc(Nc3cc(-c4ccnc(N5CCn6c(cc7c6CCCC7)C5=O)c4CO)cn(C)c3=O)nc2)C1` [Example 239, 2-[3-(hydroxymethyl)-4-[1-methyl-5-[[5-(1-methylazetidin-3-yl)-2-pyridyl]amino]-6-oxo-3-pyridyl]-2-pyridyl]-3,4,6,7,8,9-hexahydropyrazino[1,2-a]indol-1-one], with 153 nM; and `CN1CC(c2ccc(Nc3cc(-c4ccnc(N5CCn6c(cc7c6CC(C)(C)C7)C5=O)c4CO)cn(C)c3=O)nc2)C1` [Example 240, 3-[3-(hydroxymethyl)-4-[1-methyl-5-[[5-(1-methylazetidin-3-yl)-2-pyridyl]amino]-6-oxo-3-pyridyl]-2-pyridyl]-7,7-dimethyl-1,2,6,8-tetrahydrocyclopenta[3,4]pyrrolo[3,5-b]pyrazin-4-one], with 22.9 nM. Take `CN1CCn2nc(Nc3cc(-c4ccnc(N5CCc6c(c(F)c7n6CCCC7)C5=O)c4CO)cn(C)c3=O)cc2C1` [Example 241, 10-fluoro-2-[3-(hydroxymethyl)-4-[1-methyl-5-[(5-methyl-6,7-dihydro-4H-pyrazolo[1,5-a]pyrazin-2-yl)amino]-6-oxo-3-pyridyl]-2-pyridyl]-3,4,6,7,8,9-hexahydropyrido[3,4-b]indolizin-1-one]: the IC70 was found to be 190 nM. Consider `Cc1cc(Nc2cc(-c3ccnc(N4CCc5c(cc6n5CCCC6)C4=O)c3CO)cn(C)c2=O)nn1C` [Example 242, 2-[4-[5-[(1,5-dimethylpyrazol-3-yl)amino]-1-methyl-6-oxo-3-pyridyl]-3-(hydroxymethyl)-2-pyridyl]-3,4,6,7,8,9-hexahydropyrido[3,4-b]indolizin-1-one], for which the 70% effect concentration (IC70) came to 1200 nM. As for `Cn1cc(-c2ccnc(N3CCn4c(cc5c4CCCC5)C3=O)c2CO)cc(Nc2cn(C3CCN(C4COC4)CC3)cn2)c1=O` [Example 243, 2-[3-(hydroxymethyl)-4-[1-methyl-5-[[1-[1-(oxetan-3-yl)-4-piperidyl]imidazol-4-yl]amino]-6-oxo-3-pyridyl]-2-pyridyl]-3,4,6,7,8,9-hexahydropyrazino[1,2-a]indol-1-one], the figure is 2800 nM; as for `CN1CC(c2ccc(Nc3cc(-c4ccnc(N5CCc6c(cc7n6CCCC7)C5=O)c4CO)cn(C)c3=O)nc2)C1` [Example 244, 2-[3-(hydroxymethyl)-4-[1-methyl-5-[[5-(1-methylazetidin-3-yl)-2-pyridyl]amino]-6-oxo-3-pyridyl]-2-pyridyl]-3,4,6,7,8,9-hexahydropyrido[3,4-b]indolizin-1-one], 138 nM; as for `C[C@H]1CN(C2COC2)CCN1c1ccc(Nc2cc(-c3ccnc(-n4ccc5c(cc6n5CCCC6)c4=O)c3CO)cn(C)c2=O)nc1` [Example 245, (S)-2-(3-(Hydroxymethyl)-4-(1-methyl-5-(5-(2-methyl-4-(oxetan-3-yl)piperazin-1-yl)pyridin-2-ylamino)-6-oxo-1,6-dihydropyridin-3-yl)pyridin-2-yl)-6,7,8,9-tetrahydropyrido[3,4-b]indolizin-1(2H)-one], 65 nM. Then `Cc1cc(Nc2cc(-c3ccnc(-n4ccc5c(cc6n5CCCC6)c4=O)c3CO)cn(C)c2=O)nn1C` [Example 246, 2-[4-[5-[(1,5-dimethylpyrazol-3-yl)amino]-1-methyl-6-oxo-3-pyridyl]-3-(hydroxymethyl)-2-pyridyl]-6,7,8,9-tetrahydropyrido[3,4-b]indolizin-1-one], with 1700 nM. As for `CC(=O)N1CCn2nc(Nc3cc(-c4ccnc(-n5ncc6c7c(sc6c5=O)CCCC7)c4CO)cn(C)c3=O)cc2C1` [Example 247, 3-[4-[5-[(5-acetyl-6,7-dihydro-4H-pyrazolo[1,5-a]pyrazin-2-yl)amino]-1-methyl-6-oxo-3-pyridyl]-3-(hydroxymethyl)-2-pyridyl]-6,7,8,9-tetrahydrobenzothiopheno[2,3-d]pyridazin-4-one], the figure is 145 nM; as for `C[C@@H]1COCCN1C(=O)c1ccc(Nc2cc(-c3ccnc(N4CCn5c(cc6c5CC(C)(C)C6)C4=O)c3CO)nn(C)c2=O)nc1` [Example 248, 3-[3-(hydroxymethyl)-4-[1-methyl-5-[[5-[(3R)-3-methylmorpholine-4-carbonyl]-2-pyridyl]amino]-6-oxo-pyridazin-3-yl]-2-pyridyl]-7,7-dimethyl-1,2,6,8-tetrahydrocyclopenta[3,4]pyrrolo[3,5-b]pyrazin-4-one], 70.3 nM; as for `C[C@@H]1COCCN1C(=O)c1ccc(Nc2cc(-c3ccnc(N4CCn5c(cc6c5CC(C)(C)C6)C4=O)c3CO)cn(C)c2=O)nc1` [Example 249, 3-[3-(hydroxymethyl)-4-[1-methyl-5-[[5-[(3R)-3-methylmorpholine-4-carbonyl]-2-pyridyl]amino]-6-oxo-3-pyridyl]-2-pyridyl]-7,7-dimethyl-1,2,6,8-tetrahydrocyclopenta[3,4]pyrrolo[3,5-b]pyrazin-4-one], 17.7 nM. Turning to `CC1Cn2nc(Nc3cc(-c4ccnc(N5CCn6c(cc7c6CCCC7)C5=O)c4CO)cn(C)c3=O)cc2CN1C` (stereo not shown) [Example 250, 2-[4-[5-[(5,6-dimethyl-6,7-dihydro-4H-pyrazolo[1,5-a]pyrazin-2-yl)amino]-1-methyl-6-oxo-3-pyridyl]-3-(hydroxymethyl)-2-pyridyl]-3,4,6,7,8,9-hexahydropyrazino[1,2-a]indol-1-one], the concentration for an effect of 70% (IC70) was determined as 171 nM.

As for `CCn1nc(Nc2cc(-c3ccnc(N4CCn5c(cc6c5CC(C)(C)C6)C4=O)c3CO)cn(C)c2=O)cc1C` [Example 252, 3-[4-[5-[(1-ethyl-5-methyl-pyrazol-3-yl)amino]-1-methyl-6-oxo-3-pyridyl]-3-(hydroxymethyl)-2-pyridyl]-7,7-dimethyl-1,2,6,8-tetrahydrocyclopenta[3,4]pyrrolo[3,5-b]pyrazin-4-one], the IC70 was 252 nM.

For `C[C@H]1CN(C2COC2)CCN1c1ccc(Nc2cc(-c3ccnc(N4CCn5c(cc6c5CC(C)(C)C6)C4=O)c3CO)n[nH]c2=O)nc1` [Example 253, 3-[3-(hydroxymethyl)-4-[5-[[5-[(2S)-2-methyl-4-(oxetan-3-yl)piperazin-1-yl]-2-pyridyl]amino]-6-oxo-1H-pyridazin-3-yl]-2-pyridyl]-7,7-dimethyl-1,2,6,8-tetrahydrocyclopenta[3,4]pyrrolo[3,5-b]pyrazin-4-one], the IC70 stood at 16.4 nM. As for `CC(=O)N1CCn2nc(Nc3cc(-c4ccnc(N5CCc6c(sc7c6CC(C)(C)C7)C5=O)c4CO)cn(C)c3=O)cc2C1` [Example 254, 3-[4-[5-[(5-acetyl-6,7-dihydro-4H-pyrazolo[1,5-a]pyrazin-2-yl)amino]-1-methyl-6-oxo-3-pyridyl]-3-(hydroxymethyl)-2-pyridyl]-7,7-dimethyl-1,2,6,8-tetrahydrocyclopenta[3,4]thieno[1,3-c]pyridin-4-one], the 70% effect concentration (IC70) was 37.3 nM. Consider `CC(=O)N1CCn2nc(Nc3cc(-c4ccnc(N5CCn6c7c(c(F)c6C5=O)CCCC7)c4CO)cn(C)c3=O)cc2C1` [Example 255, 2-[4-[5-[(5-acetyl-6,7-dihydro-4H-pyrazolo[1,5-a]pyrazin-2-yl)amino]-1-methyl-6-oxo-3-pyridyl]-3-(hydroxymethyl)-2-pyridyl]-10-fluoro-3,4,6,7,8,9-hexahydropyrazino[1,2-a]indol-1-one], for which the concentration for an effect of 70% (IC70) turned out to be 94 nM. As for `C[C@H]1COCCN1C(=O)c1ccc(Nc2cc(-c3ccnc(N4CCn5c(cc6c5CC(C)(C)C6)C4=O)c3CO)nn(C)c2=O)nc1` [Example 256, 3-[3-(hydroxymethyl)-4-[1-methyl-5-[[5-[(3 S)-3-methylmorpholine-4-carbonyl]-2-pyridyl]amino]-6-oxo-pyridazin-3-yl]-2-pyridyl]-7,7-dimethyl-1,2,6,8-tetrahydrocyclopenta[3,4]pyrrolo[3,5-b]pyrazin-4-one], the figure is 80 nM. As for `C[C@H]1COCCN1C(=O)c1ccc(Nc2cc(-c3ccnc(N4CCn5c(cc6c5CC(C)(C)C6)C4=O)c3CO)cn(C)c2=O)nc1` [Example 257, 3-[3-(hydroxymethyl)-4-[1-methyl-5-[[5-[(3 S)-3-methylmorpholine-4-carbonyl]-2-pyridyl]amino]-6-oxo-3-pyridyl]-2-pyridyl]-7,7-dimethyl-1,2,6,8-tetrahydrocyclopenta[3,4]pyrrolo[3,5-b]pyrazin-4-one], the figure is 21.6 nM.
